Test results reported in PMC11714206, “Massively Parallel Screening of Toll/Interleukin‐1 Receptor (TIR)‐Derived Peptides Reveals Multiple Toll‐Like Receptors (TLRs)‐Targeting Immunomodulatory Peptides” (Advanced Science, 2024).

Biological target: T1, MyD88^TIR (Homo sapiens, UniProt Q99836)
T1 construct: MyD88 (residues 148–296); 6xHis; made in house; host or cells: E. coli BL21 (DE3)
Assay: T‐Surf phage library (P8 and P3) selection against MyD88^TIR, four rounds, NGS read counts
Format: binding
Conditions: for P8_MyD88 Rank (after) / P8_MyD88 Rank (before): P8 library; for Population: 4th round of selection against MyD88 TIR, share of NGS reads; for P3_MyD88 Rank (after) / P3_MyD88 Rank (before): P3 library
In short: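 Four panning rounds on TIR domain adsorbed at 5 µg mL^−1; binding 1 h at 20–22 °C, elution with 100 mM HCl. Output: NGS read counts of round‐4 pools versus naïve library.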

[1] = P8_MyD88: rank by NGS read count after grouping
[2] = P8_MyD88: rank by NGS read count before grouping
[3] = selection against MyD88 TIR, rank by count after grouping
[4] = selection against MyD88 TIR, rank by count before grouping
[5] = P8_MyD88: rank by count after grouping
[6] = P8_MyD88: rank by count before grouping
[7] = P3_MyD88: rank by count after grouping
[8] = P3_MyD88: rank by count before grouping
[9] = P3_MyD88 pool: P3 T-Surf phage library
[10] = selection against MyD88, rank by count after grouping
[11] = selection against MyD88, rank by count before grouping
[12] = 4R selection against MyD88, rank after grouping
[13] = 4R selection against MyD88, rank before grouping
[14] = selection against MyD88, rank after grouping
[15] = selection against MyD88, rank before grouping

T1 sequence (Q99836 148-296): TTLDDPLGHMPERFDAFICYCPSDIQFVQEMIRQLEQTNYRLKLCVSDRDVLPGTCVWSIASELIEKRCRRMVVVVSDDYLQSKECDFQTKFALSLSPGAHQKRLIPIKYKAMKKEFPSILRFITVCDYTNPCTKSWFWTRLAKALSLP

## YPQDLEWLYERLVSPV
[1]
  Rank (after): 945
[2]
  Rank (before): 2099

## LGYQWIEWEYFVGIED
[3]
  P8_MyD88 Rank (after): 250
[4]
  P8_MyD88 Rank (before): 1186

## LKVESWRQALEKAGKL
[3]
  P8_MyD88 Rank (after): 211
[4]
  P8_MyD88 Rank (before): 326

## EPPGLDWVYERLVVLF
[1]
  Rank (after): 927
[2]
  Rank (before): 3199

## MFGGDSFHDFLELISM
[5]
  Rank (after): 391
[6]
  Rank (before): 3656

## GALDEVRKILYANETM
[1]
  Rank (after): 908
[2]
  Rank (before): 2280

## WDFASNMNSFGIVCI
[1]
  Rank (after): 974
[2]
  Rank (before): 1628

## DFLKWDNEAIMIKKIA
[1]
  Rank (after): 993
[2]
  Rank (before): 2369

## YLEWPLDENQQLIFWF
[5]
  Rank (after): 477
[6]
  Rank (before): 1960

## WALDELLKILYARELF
[3]
  P8_MyD88 Rank (after): 222
[4]
  P8_MyD88 Rank (before): 518

## AVDKKTDKIQTPRKNA
[7]
  Rank (after): 468
[8]
  Rank (before): 1938

## SSFREGLWRLLELGKK
[9]
  Population: 0.00437%

## DPQDLDWIYERLVSRF
[5]
  Rank (after): 436
[6]
  Rank (before): 2831

## KWLWEKRTCGHSRNTA
[10]
  P3_MyD88 Rank (after): 676
[11]
  P3_MyD88 Rank (before): 3585

## NQWLNSLTAPANPSDW
[7]
  Rank (after): 396
[8]
  Rank (before): 3469

## SSFREGLSRLPELSKK
[12]
  P3_MyD88 Rank (after): 589
[13]
  P3_MyD88 Rank (before): 3207

## WDFASTMEQLWARLYY
[14]
  P8_MyD88 Rank (after): 498
[15]
  P8_MyD88 Rank (before): 1587

## YLLRSLFQTLFPRRTE
[1]
  Rank (after): 1013
[2]
  Rank (before): 2020

## WAQEQDGFWVRLIEAL
[5]
  Rank (after): 449
[6]
  Rank (before): 878

## DYASNTFLLRELLQIA
[10]
  P8_MyD88 Rank (after): 746
[11]
  P8_MyD88 Rank (before): 2543

## PQDLGWYYERLVSLIL
[1]
  Rank (after): 888
[2]
  Rank (before): 3421

## DPQGLDWYYVRLVSLL
[1]
  Rank (after): 926
[2]
  Rank (before): 2666

## DHHLDLPRGKALKPEMLG
[3]
  P3_MyD88 Rank (after): 200
[4]
  P3_MyD88 Rank (before): 2046

## EWIREQLHPALNERLP
[10]
  P3_MyD88 Rank (after): 742
[11]
  P3_MyD88 Rank (before): 2176

## SSFRRPVASAGTEQK
[7]
  Rank (after): 471
[8]
  Rank (before): 3247

## CLLLSVFQTLFARRTE
[1]
  Rank (after): 877
[2]
  Rank (before): 1353

## LKCGEPYFWSKLRYAM
[7]
  Rank (after): 137
[8]
  Rank (before): 2407

## LKWGDPYLCSKLRYAM
[10]
  P3_MyD88 Rank (after): 726
[11]
  P3_MyD88 Rank (before): 2442

## WFWQSLRNTIIMDNQA
[12]
  P8_MyD88 Rank (after): 605
[13]
  P8_MyD88 Rank (before): 1355

## DPQLLDWLYERLRRPV
[1]
  Rank (after): 999
[2]
  Rank (before): 3024

## ELDGDFGRNLWDLWRL
[3]
  P8_MyD88 Rank (after): 249
[4]
  P8_MyD88 Rank (before): 477

## AVDKETDKIQTPLEM
[7]
  Rank (after): 115
[8]
  Rank (before): 601

## WALDELLQILHAREL
[14]
  P8_MyD88 Rank (after): 577
[15]
  P8_MyD88 Rank (before): 1451

## DTKLKEGDCVPPELLR
[12]
  P3_MyD88 Rank (after): 664
[13]
  P3_MyD88 Rank (before): 2090

## YTALTNSGFHIFSANG
[14]
  P3_MyD88 Rank (after): 497
[15]
  P3_MyD88 Rank (before): 1664

## MDYLLRILHSSNFTTF
[5]
  Rank (after): 102
[6]
  Rank (before): 105
P8_MyD88 pool: P8 T-Surf phage library
  Population: 0.022%

## DPQDLVWYYERLVSLF
[5]
  Rank (after): 410
[6]
  Rank (before): 2717

## SSFRERLCRLLELSKK
[3]
  P3_MyD88 Rank (after): 235
[4]
  P3_MyD88 Rank (before): 3242

## LKVESWRQALEKADKL
[9]
  Population: 0.00408%

## SPWALYELVEILTAYK
[5]
  Rank (after): 185
[6]
  Rank (before): 251

## VANILGYHWFDWEYFVVIGD
[1]
  Rank (after): 875
[2]
  Rank (before): 2171

## LKWGDERFWERLVYVM
[3]
  P8_MyD88 Rank (after): 191
[4]
  P8_MyD88 Rank (before): 250

## SENMRPARGRWMNWC
[12]
  P3_MyD88 Rank (after): 654
[13]
  P3_MyD88 Rank (before): 3000

## WALDELLKILCANKTM
[10]
  P8_MyD88 Rank (after): 766
[11]
  P8_MyD88 Rank (before): 1477

## DGGWDYLLPNVEGPAC
[10]
  P8_MyD88 Rank (after): 760
[11]
  P8_MyD88 Rank (before): 2560

## PEKIMAAKMRLSITL
[3]
  P3_MyD88 Rank (after): 274
[4]
  P3_MyD88 Rank (before): 2702

## SSCREGLWRLLELSNK
[7]
  Rank (after): 402
[8]
  Rank (before): 3260

## GEDTRYTFTGHLHRYLVQRGV
[3]
  P3_MyD88 Rank (after): 240
[4]
  P3_MyD88 Rank (before): 917

## DPHGLEWIYERLVSLF
[1]
  Rank (after): 923
[2]
  Rank (before): 2629

## HQLSVDIQGYALKAGV
[10]
  P3_MyD88 Rank (after): 679
[11]
  P3_MyD88 Rank (before): 2807
